These results are taken from US20110212968A1, “PHENETHYLAMIDE DERIVATIVES AND THEIR HETEROCYCLIC ANALOGUES” (priority 2008, published 2011).

Some results are limits rather than exact numbers.

For assay [1], the target named is T1, human orexin-2 receptor (Homo sapiens, UniProt O43614).
T1 construct: expressed in transfected cells; host or cells: CHO (Chinese hamster ovary) cells, kept under G418 selection
T1 sequence (O43614 1-444): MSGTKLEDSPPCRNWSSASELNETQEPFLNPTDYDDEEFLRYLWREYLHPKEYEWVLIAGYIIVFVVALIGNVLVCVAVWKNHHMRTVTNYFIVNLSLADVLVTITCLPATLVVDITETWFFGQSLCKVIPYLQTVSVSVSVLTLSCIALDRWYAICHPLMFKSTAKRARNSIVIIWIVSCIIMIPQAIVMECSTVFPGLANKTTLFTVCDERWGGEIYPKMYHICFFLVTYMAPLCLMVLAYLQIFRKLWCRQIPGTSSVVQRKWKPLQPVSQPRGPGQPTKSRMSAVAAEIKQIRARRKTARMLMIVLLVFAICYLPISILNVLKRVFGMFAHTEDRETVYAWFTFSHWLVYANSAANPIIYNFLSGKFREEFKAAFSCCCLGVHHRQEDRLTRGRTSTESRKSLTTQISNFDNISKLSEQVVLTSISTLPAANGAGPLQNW
Nature of the assay: Intracellular calcium measurement (FLIPR Tetra), orexin receptor antagonistic activity, OX2. It is filed as cell-based. Particulars: CHO cells expressing human orexin-2 receptor, 3 nM orexin-A. The protocol:
(§1) The orexin receptor antagonistic activity of the compounds of formula (I) is determined in accordance with one of the following experimental methods.
(§2) Chinese hamster ovary (CHO) cells expressing the human orexin-1 receptor and the human orexin-2 receptor, respectively, are grown in culture medium (Ham F-12 with L-Glutamine) containing 300 μg/ml G418, 100 U/ml penicillin, 100 μg/ml streptomycin and 10% heat inactivated fetal calf serum (FCS). The cells are seeded at 20,000 cells/well into 384-well black clear bottom sterile plates (Greiner). The seeded plates are incubated overnight at 37° C. in 5% CO2.
(§3) Human orexin-A as an agonist is prepared as 1 mM stock solution in MeOH:water (1:1), diluted in HBSS containing 0.1% bovine serum albumin (BSA), NaHCO3: 0.375 g/l and 20 mM HEPES for use in the assay at a final concentration of 3 nM. Antagonists are prepared as 10 mM stock solution in DMSO, then diluted in 384-well plates, first in DMSO, then in HBSS containing 0.1% bovine serum albumin (BSA), NaHCO3: 0.375 g/l and 20 mM HEPES.
(§4) On the day of the assay, 50 μl of staining buffer (HBSS containing 1% FCS, 20 mM HEPES, NaHCO3: 0.375 g/l, 5 mM probenecid (Sigma) and 3 μM of the fluorescent calcium indicator fluo-4 AM (1 mM stock solution in DMSO, containing 10% pluronic) is added to each well.
(§5) The 384-well cell-plates are incubated for 50 min at 37° C. in 5% CO2 followed by equilibration at RT for 30-120 min before measurement.
(§6) Within the Fluorescent Imaging Plate Reader (FLIPR Tetra, Molecular Devices), antagonists are added to the plate in a volume of 10 μl/well, incubated for 10 min and finally 10 μl/well of agonist is added. Fluorescence is measured for each well at 1 second intervals, and the height of each fluorescence peak is compared to the height of the fluorescence peak induced by 3 nM orexin-A with vehicle in place of antagonist. For each antagonist, the IC50 value (the concentration of compound needed to inhibit 50% of the agonistic response) is determined and may be normalized using the obtained IC50 value of a on-plate reference compound (normalized values in Table 1 are indicated by an asterisk *). With the FLIPR Tetra, two different conditions (conditions A and conditions B) were used, differing in adjustment of pipetting speed and cell splitting regime. The calculated IC50 values of the compounds may fluctuate depending on the daily cellular assay performance. Fluctuations of this kind are known to those skilled in the art.
(Calcium assays in cells follow changes in intracellular calcium, usually with a dye or a luminescent sensor.)

Assay [2] has as its target T2, human orexin-1 receptor (Homo sapiens, UniProt O43613).
T2 construct: expressed in transfected cells; host or cells: CHO (Chinese hamster ovary) cells, kept under G418 selection
T2 sequence (O43613 1-425): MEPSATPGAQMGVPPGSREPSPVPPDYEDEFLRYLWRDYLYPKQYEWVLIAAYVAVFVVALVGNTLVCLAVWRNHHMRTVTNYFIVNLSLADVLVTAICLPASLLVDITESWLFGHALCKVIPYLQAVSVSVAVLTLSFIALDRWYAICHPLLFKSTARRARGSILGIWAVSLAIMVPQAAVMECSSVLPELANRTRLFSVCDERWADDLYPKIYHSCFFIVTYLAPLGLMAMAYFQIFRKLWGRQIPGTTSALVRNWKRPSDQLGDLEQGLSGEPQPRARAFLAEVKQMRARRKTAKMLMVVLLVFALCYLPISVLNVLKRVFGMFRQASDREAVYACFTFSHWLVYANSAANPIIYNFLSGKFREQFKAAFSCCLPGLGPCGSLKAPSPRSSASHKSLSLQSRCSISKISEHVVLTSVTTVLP
As to the kind of experiment: Intracellular calcium measurement (FLIPR Tetra), orexin receptor antagonistic activity, OX1. It is filed as cell-based. Particulars: CHO cells expressing human orexin-1 receptor, 3 nM orexin-A. The protocol:
as §1, §2, §3, §4, §5, §6

Where [3] appears, read: conditions B, normalized (*) using IC50 of on-plate reference compound.

With “2-Methyl-5-m-tolyl-thiazole-4-carboxylic acid [2-cyclopropyl-amino-2-(3,4-dimethoxy-phenyl)-ethyl]-cyclopropylmethyl-amide [Example 432]”, the half-maximal inhibitory concentration (IC50) in assay [1] (conditions B) was 75 nM; in assay [2] (conditions B), 234 nM.
In the case of `COc1ccc2[nH]cc(CC(C)N(CC3CC3)C(=O)c3nc(C)sc3-c3ccc(OC)nc3)c2c1` (racemic) [Example 385], the IC50 in assay [1] (setting [3]) was determined as 25 nM; in assay [2] (setting [3]) it was 23 nM.
In the case of `COc1ccc(CCN(CC2CC2)C(=O)c2nc(C)sc2-c2ccccc2)cc1OC` [Example 18, 2-Methyl-5-phenyl-thiazole-4-carboxylic acid cyclopropylmethyl-[2-(3,4-dimethoxy-phenyl)-ethyl]-amide], the figures for the IC50 in assay [1] (conditions A) and in assay [2] (conditions A) were 4 nM and 925 nM, respectively.
With `COc1ccc(CCN(CC2CC2)C(=O)c2nc(C)sc2-c2cccc(C#N)c2)cc1OC` [Example 19, 5-(3-Cyano-phenyl)-2-methyl-thiazole-4-carboxylic acid cyclopropylmethyl-[2-(3,4-dimethoxy-phenyl)-ethyl]-amide], the half-inhibitory concentration (IC50) was found to be 40 nM in assay [1] (conditions A) and 2200 nM in assay [2] (conditions A).
As to `CCc1ccc(-c2sc(C)nc2C(=O)N(CCc2ccc(OC)c(OC)c2)CC2CC2)cc1` [Example 20, 5-(4-Ethyl-phenyl)-2-methyl-thiazole-4-carboxylic acid cyclopropylmethyl-[2-(3,4-dimethoxy-phenyl)-ethyl]-amide], the half-maximal inhibitory concentration (IC50) in assay [1] (conditions A) worked out at 15 nM; in assay [2] (conditions A), 2130 nM.
The like results for `COc1ccc(CCN(CC2CC2)C(=O)c2nc(C3CC3)sc2-c2ccccc2)cc1OC` [Example 22, 2-Cyclopropyl-5-phenyl-thiazole-4-carboxylic acid cyclopropylmethyl-[2-(3,4-dimethoxy-phenyl)-ethyl]-amide] were, in that order, 35 nM and 570 nM.
In the case of `COc1ccc(CCN(CC2CC2)C(=O)c2nc(N(C)C)sc2-c2cccc(C)c2)cc1OC` [Example 30, 2-Dimethylamino-5-m-tolyl-thiazole-4-carboxylic acid cyclopropylmethyl-[2-(3,4-dimethoxy-phenyl)-ethyl]-amide], the results for the IC50 in assay [1] (conditions A) and in assay [2] (conditions A) were 30 nM and 206 nM, respectively.
The like results for `COc1ccc(CCN(CC2CC2)C(=O)c2ncsc2-c2ccccc2F)cc1OC` [Example 37, 5-(2-Fluoro-phenyl)-thiazole-4-carboxylic acid cyclopropylmethyl-[2-(3,4-dimethoxy-phenyl)-ethyl]-amide] were, in that order, 5 nM and 2690 nM.
In the case of `COc1cccc(-c2oc(C)nc2C(=O)N(CCc2ccc(OC)c(OC)c2)CC2CC2)c1` [Example 42, 5-(3-Methoxy-phenyl)-2-methyl-oxazole-4-carboxylic acid cyclopropylmethyl-[2-(3,4-dimethoxy-phenyl)-ethyl]-amide], the IC50 in assay [1] (conditions A) was 20 nM; in assay [2] (conditions A), 1010 nM.
Regarding `COc1ccc(CCN(CC2CC2)C(=O)c2nc(C)oc2-c2cccc(C(F)(F)F)c2)cc1OC` [Example 43, 2-Methyl-5-(3-trifluoromethyl-phenyl)-oxazole-4-carboxylic acid cyclopropylmethyl-[2-(3,4-dimethoxy-phenyl)-ethyl]-amide], the IC50 in assay [1] (conditions A) is 18 nM; in assay [2] (conditions A) it was 3120 nM.
Regarding `COc1ccc(CCN(CC2CC2)C(=O)c2sc(C)nc2-c2ccc(Cl)cc2)cc1OC` [Example 48, 4-(4-Chloro-phenyl)-2-methyl-thiazole-5-carboxylic acid cyclopropylmethyl-[2-(3,4-dimethoxy-phenyl)-ethyl]-amide], the IC50 in assay [1] (conditions A) was 17 nM; in assay [2] (conditions A), 4920 nM.
In the case of `COc1ccc(CCN(CC2CC2)C(=O)c2sc(C)nc2-c2ccc(C)cc2)cc1OC` [Example 49, 2-Methyl-4-p-tolyl-thiazole-5-carboxylic acid cyclopropylmethyl-[2-(3,4-dimethoxy-phenyl)-ethyl]-amide], the IC50 in assay [1] (conditions A) was determined as 22 nM; in assay [2] (conditions A) it was 4230 nM.
On to `COc1ccc(CCN(CC2CC2)C(=O)c2sc(C)nc2-c2ccc(F)cc2)cc1OC` [Example 50, 4-(4-Fluoro-phenyl)-2-methyl-thiazole-5-carboxylic acid cyclopropylmethyl-[2-(3,4-dimethoxy-phenyl)-ethyl]-amide], for which the IC50 in assay [1] (conditions A) was 10 nM; in assay [2] (conditions A), above 10000 nM.
The like results for `COc1ccc(CCN(CC2CC2)C(=O)c2c(-c3ccccc3)nnc3ccccc23)cc1OC` [Example 51, 3-Phenyl-cinnoline-4-carboxylic acid cyclopropylmethyl-[2-(3,4-dimethoxy-phenyl)-ethyl]-amide] were, in that order, 34 nM and 1440 nM.
Consider `COc1ccc(CCN(CC2CC2)C(=O)c2snnc2-c2ccccc2)cc1OC` [Example 53, 4-Phenyl-[1,2,3]thiadiazole-5-carboxylic acid cyclopropylmethyl-[2-(3,4-dimethoxy-phenyl)-ethyl]-amide], for which the half-maximal inhibitory concentration (IC50) was determined as 81 nM in assay [1] (conditions A) and 8670 nM in assay [2] (conditions A).
Consider `COc1ccc(C(O)CN(CC2CC2)C(=O)c2nc(Br)sc2-c2cccc(C)c2)cc1OC` (stereo not shown) [Example 56, 2-Bromo-5-m-tolyl-thiazole-4-carboxylic acid cyclopropylmethyl-[2-(3,4-dimethoxy-phenyl)-2-hydroxy-ethyl]-amide], for which the IC50 in assay [1] (conditions A) was determined as 299 nM; in assay [2] (conditions A), 697 nM.
Take `COc1nc(C(=O)N(CC2CC2)CC(O)c2ccc(OC)c(OC)c2)c(-c2cccc(C)c2)s1` (stereo not shown) [Example 78, 2-Methoxy-5-m-tolyl-thiazole-4-carboxylic acid cyclopropylmethyl-[2-(3,4-dimethoxy-phenyl)-2-hydroxy-ethyl]-amide]: the concentration for half-maximal inhibition (IC50) was determined as 141 nM in assay [1] (conditions A) and 1120 nM in assay [2] (conditions A).
As for `COc1ccc(C(O)CN(CC2CC2)C(=O)c2nc(N(C)C)sc2-c2cccc(C)c2)cc1OC` (stereo not shown) [Example 79, 2-Dimethylamino-5-m-tolyl-thiazole-4-carboxylic acid cyclopropylmethyl-[2-(3,4-dimethoxy-phenyl)-2-hydroxy-ethyl]-amide], the concentration for half-maximal inhibition (IC50) in assay [1] (conditions A) was found to be 158 nM; in assay [2] (conditions A) it was 276 nM.
On to `COc1ccc(C(O)CN(CC2CC2)C(=O)c2ncsc2-c2cccc(C(F)(F)F)c2)cc1OC` (stereo not shown) [Example 85, 5-(3-Trifluoromethyl-phenyl)-thiazole-4-carboxylic acid cyclopropylmethyl-[2-(3,4-dimethoxy-phenyl)-2-hydroxy-ethyl]-amide], for which the values for the IC50 in assay [1] (conditions A) and in assay [2] (conditions A) were 551 nM and above 10000 nM, respectively.
With `COc1ccc(C(O)CN(CC2CC2)C(=O)c2c(-c3ccccc3)nc3ccc(Cl)cn23)cc1OC` (stereo not shown) [Example 97, 6-Chloro-2-phenyl-imidazo[1,2-a]pyridine-3-carboxylic acid cyclopropylmethyl-[2-(3,4-dimethoxy-phenyl)-2-hydroxy-ethyl]-amide], the IC50 turned out to be 263 nM in assay [1] (conditions A) and 4920 nM in assay [2] (conditions A).

As a reminder, the IC50 is the concentration that gives 50% inhibition.
